Results published in patent US10039759B2, “Quinolines as FGFR kinase modulators” (priority 2011, dated 2018).
Read-outs that look alike come from different tables or passages of the source.

Legend:
FGFR1 (h) = FGFR1 (h) (Homo sapiens, UniProt P11362); test: FGFR1 (enzymatic assay), TR-FRET; assay type: biochemical; details: FGFR 1 pIC50, 5 μM ATP, 60 min; pIC50 = -log IC50 (M); average if tested multiple times
[1] = target: T1, Ba/F3-Flt3-transfected cells (Homo sapiens, UniProt P36888, cells depend on it, form not given); test: Ba/F3-Flt3 (minus IL3 or plus IL3) cellular proliferation assay, Alamar Blue; assay type: cell-based; details: minus IL3, 24 hours
T1 construct: BAF3-FLT3 (MIN IL3 Alamar Blue pIC50); other: minus IL3; 24 hours, Alamar Blue
T1 sequence (P36888 1-993): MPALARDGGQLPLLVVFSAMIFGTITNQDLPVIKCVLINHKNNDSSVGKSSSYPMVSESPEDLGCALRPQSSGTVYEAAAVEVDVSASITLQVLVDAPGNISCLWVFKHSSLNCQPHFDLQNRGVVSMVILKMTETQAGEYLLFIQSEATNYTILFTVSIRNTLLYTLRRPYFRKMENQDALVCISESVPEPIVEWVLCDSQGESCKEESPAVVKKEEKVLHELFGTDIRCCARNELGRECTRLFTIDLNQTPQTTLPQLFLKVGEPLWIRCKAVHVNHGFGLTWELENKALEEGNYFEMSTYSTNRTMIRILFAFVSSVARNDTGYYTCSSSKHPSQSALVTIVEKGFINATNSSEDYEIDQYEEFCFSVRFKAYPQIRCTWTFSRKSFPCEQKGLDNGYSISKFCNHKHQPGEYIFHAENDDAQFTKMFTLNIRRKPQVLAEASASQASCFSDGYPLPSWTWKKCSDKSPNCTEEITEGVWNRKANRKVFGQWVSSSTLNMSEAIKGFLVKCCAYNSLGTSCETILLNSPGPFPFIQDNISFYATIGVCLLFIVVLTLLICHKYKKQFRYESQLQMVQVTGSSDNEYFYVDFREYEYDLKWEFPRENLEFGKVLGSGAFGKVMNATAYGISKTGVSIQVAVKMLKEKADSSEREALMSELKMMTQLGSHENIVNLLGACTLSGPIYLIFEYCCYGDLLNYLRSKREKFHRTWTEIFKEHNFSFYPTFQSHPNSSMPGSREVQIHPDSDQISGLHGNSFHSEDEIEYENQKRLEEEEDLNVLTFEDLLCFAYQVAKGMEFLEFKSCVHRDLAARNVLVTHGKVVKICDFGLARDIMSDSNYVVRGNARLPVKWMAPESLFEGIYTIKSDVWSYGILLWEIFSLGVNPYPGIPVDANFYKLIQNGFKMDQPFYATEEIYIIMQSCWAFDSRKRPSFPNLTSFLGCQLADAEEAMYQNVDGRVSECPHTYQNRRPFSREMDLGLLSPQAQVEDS
Method: Ba/F3-Flt3 (Minus IL3 or Plus IL3) (Cellular Proliferation Assay)
In a 384 well plate, 100 nl of compound dilution in DMSO was sprayed before adding 50 μl cell culture medium (phenol red free RPMI-1640, 10% FBS, 2 mM L-Glutamine and 50 μg/ml Gentamycin) containing 20000 cells per well of Ba/F3-Flt3-transfected cells. Cells were put in an incubator at 37° C. and 5% CO2. After 24 hours, 10 μl of Alamar Blue solution (0.5 mM K3Fe(CN)6, 0.5 mM K4Fe(CN)6, 0.15 mM Resazurin and 100 mM Phosphate Buffer) was added to the wells, incubated for 4 hours at 37° C. and 5% CO2 before RFU's (Relative Fluorescence Units) (ex. 540 nm., em. 590 nm.) were measured in a fluorescence plate reader.
In this assay, the inhibitory effect of different compound concentrations (range 10 μM to 0.1 nM) was determined and used to calculate an IC50 (M) and pIC50 (−log IC50) value. As a counterscreen the same experiment was performed in the presence of 10 ng/ml murine IL3.

[2] = test system: Ba/F3-FGFR3-transfected cells; test: Ba/F3-FGFR3 (minus IL3 or plus IL3) cellular proliferation assay, Alamar Blue; assay type: cell-based; details: for IC50: read-out: BAF3-FGFR3 (PLUS IL3 Alamar Blue pIC50) (converted)
Outline: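 Ba/F3-FGFR3 cells (20000 per well) in phenol red-free RPMI-1640 with 10% FBS were exposed to compound (10 μM to 0.1 nM) for 24 h at 37° C. Alamar Blue was then added for 4 h and fluorescence read (ex 540, em 590 nm) to give IC50/pIC50; the counterscreen was run with 10 ng/ml murine IL3.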

[3] = test system: Ba/F3-KDR-transfected cells; test: Ba/F3-KDR (minus IL3 or plus IL3) cellular proliferation assay, Alamar Blue; assay type: cell-based; details: for IC50: read-out: BAF3-KDR (PLUS IL3 Alamar Blue pIC50) (converted)
Outline: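 Ba/F3-KDR cells, 20000 per well, exposed to compounds (10 μM to 0.1 nM) for 24 h at 37°C in RPMI/10% FBS, then Alamar Blue for 4 h; fluorescence ex 540/em 590 nm gives IC50 and pIC50. Counterscreen run with 10 ng/ml murine IL3.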

[4] = plus IL3 (10 ng/ml murine IL3, counterscreen), 24 hours, Alamar Blue

Chain of FGFR1 (h) (P11362 22-822): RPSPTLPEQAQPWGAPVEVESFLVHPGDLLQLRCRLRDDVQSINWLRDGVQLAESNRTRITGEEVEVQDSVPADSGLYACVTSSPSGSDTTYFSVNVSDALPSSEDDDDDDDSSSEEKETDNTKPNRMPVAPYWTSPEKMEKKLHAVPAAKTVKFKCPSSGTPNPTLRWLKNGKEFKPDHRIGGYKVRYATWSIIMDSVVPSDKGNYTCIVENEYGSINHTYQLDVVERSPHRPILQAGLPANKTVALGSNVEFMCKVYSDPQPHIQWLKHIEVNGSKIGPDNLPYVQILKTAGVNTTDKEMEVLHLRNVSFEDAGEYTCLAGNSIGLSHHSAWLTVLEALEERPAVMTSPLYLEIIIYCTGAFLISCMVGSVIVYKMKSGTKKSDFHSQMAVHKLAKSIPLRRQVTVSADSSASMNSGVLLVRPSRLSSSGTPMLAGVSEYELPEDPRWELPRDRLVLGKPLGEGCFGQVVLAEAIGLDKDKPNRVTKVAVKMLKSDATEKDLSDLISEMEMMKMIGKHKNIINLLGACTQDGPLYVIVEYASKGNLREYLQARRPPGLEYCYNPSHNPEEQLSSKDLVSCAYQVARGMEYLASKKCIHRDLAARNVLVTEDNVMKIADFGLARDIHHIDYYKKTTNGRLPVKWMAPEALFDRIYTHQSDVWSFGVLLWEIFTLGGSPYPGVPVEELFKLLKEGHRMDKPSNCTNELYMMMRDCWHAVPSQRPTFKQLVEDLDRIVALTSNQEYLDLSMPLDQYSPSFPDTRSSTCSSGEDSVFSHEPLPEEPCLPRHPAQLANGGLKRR

IC50 (FGFR1 (h)) [M] | BAF3-FLT3 (MIN IL3 Alamar Blue pIC50) [1] | SMILES | IC50 [2, 4] [µM] | IC50 [3, 4] [µM] | further results
1.64e-09 | <5 | COc1cccnc1C#CCN(c1ccc2ncc(-c3cnn(C)c3)cc2c1)c1c(F)c(OC)cc(OC)c1F [Compound 27] |  |  | 
1.51e-08 | 5.2 | C#CCN(c1cc(OC)cc(OC)c1)c1ccc2ncc(-c3cnn(C)c3)cc2c1 [Compound 6] | > 10 | > 10 | 
1.17e-09 | 5.14 | COc1cc(OC)cc(N(CCCN2CCCC2CNS(=O)(=O)C(F)(F)F)c2ccc3ncc(-c4cnn(C)c4)cc3c2)c1 (stereo not drawn) [Compound 47] | > 10 | > 10 | 
 | ~5 | COc1cc(OC)cc(N(CCNC(C)C)c2ccc3ncc(-c4cnn(C)c4)cc3c2)c1 [Compound 1] |  |  | 
1.2e-09 | 5.22 | COc1cc(OC)cc(N(CCNC(C)C)c2ccc3ncc(-c4cnn(C5CCCCO5)c4)cc3c2)c1 (stereo not drawn) [Compound 22] | > 10 | > 10 | 
2.75e-09 | <5 | COc1cc(OC)cc(N(Cc2ncc[nH]2)c2ccc3ncc(-c4cnn(C)c4)cc3c2)c1 [Compound 18] | > 10 | > 10 | melting point: 196 °C
3.63e-09 | <5 | COc1cc(OC)cc(N(CCCN)c2ccc3ncc(-c4cnn(C)c4)cc3c2)c1 [Compound 11] | > 10 | > 10 | 
2.95e-07 | <5.47 | COc1cc(OC)cc(C(O)c2ccc3ncc(-c4cnn(C)c4)cc3c2)c1 (stereo not drawn) [Compound 12] |  |  | IC50 ([2]; 24 h): > 10 µM; IC50 ([3]; 24 h): > 10 µM; melting point: 184 to 193 °C
9.55e-08 | <5 | COc1cc(Nc2ccc3ncc(-c4cnn(C5CCCCO5)c4)cc3c2)cc(OC)c1 (stereo not drawn) [Int. 8] | > 10 | > 10 | 
 | <5 | COc1cc(OC)cc(N(CC(O)C(F)(F)F)c2ccc3ncc(-c4cnn(C)c4)cc3c2)c1 (single isomer, unassigned) [Compound 24] | > 10 | > 10 | 
 | 5.06 | COc1cc(OC)cc(N(CCCNCC(F)(F)F)c2ccc3ncc(-c4cnn(C)c4)cc3c2)c1 [Compound 5] |  |  | 
 | <5 | COc1cc(OC)cc(N(Cc2nccn2S(=O)(=O)N(C)C)c2ccc3ncc(-c4ccncc4)cc3c2)c1 [Compound 58] | > 10 | > 10 | 
 | <5 | COc1cc(OC)cc(N(CC(O)C(F)(F)F)c2ccc3ncc(-c4cnn(C)c4)cc3c2)c1 (single isomer, unassigned) [Compound 25] |  |  | BAF3-FGFR3 (PLUS IL3 Alamar Blue pIC50) [2, 4]: <5; BAF3-KDR (PLUS IL3 Alamar Blue pIC50) [3, 4]: <5
 | <5 | COc1cc(OC)cc(N(Cc2nccn2S(=O)(=O)N(C)C)c2ccc3ncc(-c4cccnc4)cc3c2)c1 [Compound 60] |  |  | 
 | 5.09 | COc1cc(OC)cc(N(CCNC(C)C)c2ccc3ncc(-c4cn[nH]c4)cc3c2)c1 [Compound 21] | > 10 | > 10 | 
 | 6.03 | COc1cc(OC)cc(N(CCCN2CCCO2)c2ccc3ncc(-c4cnn(C)c4)cc3c2)c1 [Compound 19] |  |  | 
5.62e-09 | <5 | COc1cc(OC)cc(N(Cc2nccn2S(=O)(=O)N(C)C)c2ccc3ncc(-c4cnn(C)c4)cc3c2)c1 [Compound 9] | > 10 | > 10 | 
 | 5.23 | COc1cc(OC)cc(N(CC#Cc2nccn2C)c2ccc3ncc(-c4cnn(C)c4)cc3c2)c1 [Compound 48] | > 10 | > 10 | 
1.07e-09 | 5.24 | CNCCN(c1ccc2ncc(-c3cnn(C)c3)cc2c1)c1c(F)c(OC)cc(OC)c1F [Compound 43] |  |  | 
 | <5 | COc1cc(OC)cc(N(CC2CCN(c3nccc(OC)n3)C2)c2ccc3ncc(-c4cnn(C)c4)cc3c2)c1 (stereo not drawn) [Compound 7] | > 10 | > 10 | melting point: 132 °C
9.33e-09 | 5.19 | COc1cc(OC)cc(N(CC#Cc2nccc(OC)n2)c2ccc3ncc(-c4cnn(C)c4)cc3c2)c1 [Compound 16] |  |  | melting point: 203 °C
8.32e-08 | <5 | COc1cc(OC)cc(N(CC#Cc2ncccc2OC)c2ccc3ncc(-c4cnn(C)c4)cc3c2)c1 [Compound 17] | > 10 | > 10 | 
2.82e-09 | <5 | COc1cc(OC)cc(N(Cc2ncc[nH]2)c2ccc3ncc(-c4ccncc4)cc3c2)c1 [Compound 57] |  |  | 
 | <5 | COc1cc(OC)cc(N(CCNC(C)C)c2ccc3ncc(-c4cnn(CCS(C)(=O)=O)c4)cc3c2)c1 [Compound 14] | > 10 | > 10 | melting point: 129 °C
4.68e-09 | <5 | COc1cc(OC)cc(N(Cc2ncc[nH]2)c2ccc3ncc(-c4cccnc4)cc3c2)c1 [Compound 59] | > 10 | > 10 | 
 | <5.47 | COc1cc(OC)cc(N(Cc2ncccn2)c2ccc3ncc(-c4cnn(C)c4)cc3c2)c1 [Compound 8] | > 10 | > 10 | melting point: 151 °C
1.91e-08 | 5.35 | COc1cc(OC)cc(N(CCCO)c2ccc3ncc(-c4cnn(C)c4)cc3c2)c1 [Compound 4] | > 10 | > 10 | 
1.38e-08 | 5.52 | COc1cc(OC)cc(N(CCO)c2ccc3ncc(-c4cnn(C)c4)cc3c2)c1 [Compound 3] | > 10 | > 10 | melting point: 195 to 196 °C

SMILES | IC50 (FGFR1 (h)) [M] | BAF3-FLT3 (MIN IL3 Alamar Blue pIC50) [1] | IC50 [2, 4] [µM] | IC50 [3, 4] [µM] | further results
COc1cc(OC)cc(N(CCCN2CCCC2=O)c2ccc3ncc(-c4cnn(C)c4)cc3c2)c1 [Compound 10] |  | <5 |  |  | 
COc1cc(OC)c(F)c(N(CC#Cc2ncccc2OC)c2ccc3ncc(-c4cnn(C)c4)cc3c2)c1 [Compound 26] | 4.79e-09 | 5.16 |  |  | 
COc1cc(OC)c(F)c(N(CCNC(C)C)c2ccc3ncc(-c4cnn(C)c4)cc3c2)c1 [Compound 2] | 1.32e-09 | 5.34 |  |  | 
